Reference: ChEMBL document CHEMBL4261624, “Resveratrol-maltol hybrids as multi-target-directed agents for Alzheimer's disease” (Bioorg Med Chem, 2018)
Calls of active or inactive are those of the source. No cut-off for these calls is given here.

How the values were obtained:
[1] = Antioxidant activity assessed as ABTS radical scavenging activity incubated for 10 mins in dark; assay type: functional
[2] = Metal chelating activity assessed as inhibition of Cu2+-induced amyloid beta (1 to 42 residues) fibrils at 50 uM after 24 hrs by uranyl acetate staining based transmission electron microscopic analysis
[3] = Metal chelating activity assessed as inhibition of Fe3+-induced amyloid beta (1 to 42 residues) fibrils at 50 uM after 24 hrs by uranyl acetate staining based transmission electron microscopic analysis
[4] = target: T1, Amyloid-beta precursor protein (Homo sapiens, UniProt P05067); assay: Disaggregation of self-induced amyloid beta (1 to 42) (unknown origin) preformed fibrils at 50 uM after 24 hrs by uranyl acetate staining based transmission electron microscopic analysis
T1 sequence (P05067 whole entry): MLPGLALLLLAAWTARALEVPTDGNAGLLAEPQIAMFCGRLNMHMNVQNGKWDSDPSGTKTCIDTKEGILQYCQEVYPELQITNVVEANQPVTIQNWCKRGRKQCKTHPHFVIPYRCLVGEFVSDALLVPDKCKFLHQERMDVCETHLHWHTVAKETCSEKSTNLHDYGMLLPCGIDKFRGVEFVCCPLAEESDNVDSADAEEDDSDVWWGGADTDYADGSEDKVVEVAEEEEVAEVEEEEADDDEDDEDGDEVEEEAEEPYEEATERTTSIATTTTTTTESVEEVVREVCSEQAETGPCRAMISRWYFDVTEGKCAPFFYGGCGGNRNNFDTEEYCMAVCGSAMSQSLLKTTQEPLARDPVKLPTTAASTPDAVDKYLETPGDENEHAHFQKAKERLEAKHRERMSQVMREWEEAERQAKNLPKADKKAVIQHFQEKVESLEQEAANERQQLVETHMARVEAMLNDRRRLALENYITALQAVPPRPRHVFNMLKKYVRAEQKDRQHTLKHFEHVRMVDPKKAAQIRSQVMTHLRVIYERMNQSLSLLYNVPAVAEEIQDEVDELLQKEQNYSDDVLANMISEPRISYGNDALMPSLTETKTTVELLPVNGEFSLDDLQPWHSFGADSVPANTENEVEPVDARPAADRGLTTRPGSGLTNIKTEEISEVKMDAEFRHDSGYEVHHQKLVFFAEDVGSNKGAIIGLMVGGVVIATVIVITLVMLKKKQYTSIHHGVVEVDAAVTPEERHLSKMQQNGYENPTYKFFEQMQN

[5] = target: T1, Amyloid-beta precursor protein; assay: Disaggregation of Fe3+-induced amyloid beta (1 to 42) (unknown origin) preformed fibrils at 75 uM after 24 hrs by uranyl acetate staining based transmission electron microscopic analysis
[6] = target: T1, Amyloid-beta precursor protein; assay: Disaggregation of Cu2+-induced amyloid beta (1 to 42) (unknown origin) preformed fibrils at 50 uM after 24 hrs by uranyl acetate staining based transmission electron microscopic analysis
[7] = target: T1, Amyloid-beta precursor protein; assay: Disaggregation of Fe3+-induced amyloid beta (1 to 42) (unknown origin) preformed fibrils assessed as remaining amyloid beta aggregation level at […] after 24 hrs by thioflavin-T fluorescence assay
[8] = target: T1, Amyloid-beta precursor protein; assay: Inhibition of HFIP-pretreated amyloid beta (1 to 42) (unknown origin) self-induced aggregation after 24 hrs by thioflavin-T fluorescence assay
[9] = target: T1, Amyloid-beta precursor protein; assay: Inhibition of HFIP-pretreated amyloid beta (1 to 42) (unknown origin) self-induced aggregation at 20 uM after 24 hrs by thioflavin-T fluorescence assay relative to control
[10] = Metal chelating activity assessed as inhibition of Cu2+-induced amyloid beta (1 to 42 residues) fibrils after 24 hrs by thioflavin-T fluorescence assay
[11] = Metal chelating activity assessed as inhibition of Fe3+-induced amyloid beta (1 to 42 residues) fibrils by measuring fluorescence level after 24 hrs by thioflavin-T fluorescence assay; parameters: scale not given: the % may be the effect or the level left
[12] = Metal chelating activity assessed as inhibition of Fe2+-induced amyloid beta (1 to 42 residues) fibrils after 24 hrs by thioflavin-T fluorescence assay
[13] = target: T1, Amyloid-beta precursor protein; assay: Disaggregation of Cu2+-induced amyloid beta (1 to 42) (unknown origin) preformed fibrils assessed as remaining amyloid beta aggregation level at […] after 24 hrs by thioflavin-T fluorescence assay
[14] = Metal chelating activity assessed as compound-nitriloacetate Fe3+ complex formation by UV-spectrophotometric analysis

Row | IC50 [1] | IC50 [8] | inhibition [9] | SMILES | other results
1 | 3.89 µM |  |  | Cc1c(C)c2c(c(C)c1O)CCC(C)(C(=O)O)O2 (stereo unspecified) [TROLOX] | 
2 | 0.76 µM |  |  | Oc1ccc(/C=C/c2cc(O)cc(O)c2)cc1 [RESVERATROL] | inhibition [2]: Active; inhibition [3]: Active; Activity [4]: Active; Activity [5]: Active; Activity [6]: Active; Activity [7]: 58%
3 | 1.94 µM | 7.2 µM | 68.5% | O=c1cc(/C=C/c2ccc(O)cc2)occ1O | inhibition [2]: Active; inhibition [3]: Active; inhibition [10]: inactive; Activity [11]: 19%; inhibition [12]: inactive; Activity [4]: Active; Activity [5]: Active; Activity [6]: Active; Activity [7]: 14%; Activity [13]: 68%; Activity [14]: Active
4 | 1.18 µM | 8.29 µM | 63.6% | O=c1cc(/C=C/c2ccccc2O)occ1O | inhibition [2]: Active; inhibition [3]: Active; inhibition [10]: inactive; Activity [11]: 16%; inhibition [12]: inactive; Activity [4]: Active; Activity [5]: Active; Activity [6]: Active; Activity [7]: 17%; Activity [13]: 62%
5 | 4.21 µM |  | 38.2% | CCOc1ccc(/C=C/c2cc(=O)c(O)co2)cc1 | 
6 | 1.7 µM |  |  | O=c1cc(/C=C/c2ccc([N+](=O)[O-])cc2)occ1O | 
7 | 1.79 µM |  | 18.6% | COc1cc(/C=C/c2cc(=O)c(O)co2)cc(OC)c1 | 
8 | 1.95 µM |  | 18% | O=c1cc(/C=C/c2ccc(Cl)cc2)occ1O | 
9 | 3.47 µM | 7.93 µM | 61.1% | COc1ccccc1/C=C/c1cc(=O)c(O)co1 | 
10 | 3.45 µM | 17.7 µM | 58% | O=c1cc(/C=C/c2cccc(F)c2)occ1O | 
11 | 1.19 µM | 17.9 µM | 56.9% | O=c1cc(/C=C/c2cc(O)cc(O)c2)occ1O | 
12 | 3.05 µM | 5.92 µM | 61.2% | CN(C)c1ccc(/C=C/c2cc(=O)c(O)co2)cc1 | 
13 | 2.25 µM |  | 42.5% | O=c1cc(/C=C/c2ccccc2)occ1O | 
